Measurements taken from patent publication EP1171102B1, “ANHYDROUS TABLET OF RANITIDINE HYDROCHLORIDE WITH DOUBLE-LAYER COATING AND ITS COMPOSITION” (priority 1999, dated 2000).
Structures can show the parent of a compound that is named as a salt.

Key:
[1] = cited from earlier work; for hygroscopicity: comparison of Form 1 and Form 2, hydrochloride
[2] = cited from earlier work
[3] = Hygroscopicity and conversion of the crystalline forms on storage; type: physicochemical; conditions: product made by the method of the invention; chemico-physical analysis

## CNC(=C[N+](=O)[O-])NCCSCc1ccc(CN(C)C)o1 [ranitidine hydrochloride Form 2, ranitidine hydrochloride]
[1]
  hygroscopicity: less hygroscopic than Form 1

## CNC(=C[N+](=O)[O-])NCCSCc1ccc(CN(C)C)o1 [ranitidine hydrochloride Form 1, ranitidine hydrochloride]
[1]
  hygroscopicity: more hygroscopic than Form 2
[1]; room temperature, in the presence of moisture
  conversion into Form 2: may be converted in small amounts in the presence of moisture into Form 2

## CNC(=C[N+](=O)[O-])NCCSCc1ccc(CN(C)C)o1 [ranitidine hydrochloride]
[2]; both allomorphous forms (Form 1 and Form 2)
  water solubility: 900 mg in 1 ml of water
[2]; in water, at 25° C
  solubility: over 900 mg/ml

## CNC(=C[N+](=O)[O-])NCCSCc1ccc(CN(C)C)o1.Cl [anhydrous ranitidine hydrochloride]
[3]
  conversion into the allomorphous Form 2 during the storage: not gradually converted during the storage into the allomorphous Form 2
